The text below walks through data of patent US9770435B2 (EUROSCREEN SA, priority 2013, dated 2017).

For the test, the system named is TNFα secretion from LPS-stimulated PBMC. The test can be described thus: Cytokines release from peripheral blood mononuclear cell assay: TNFα. The class given is cell-based. Conditions: Homo sapiens, 3 h. The protocol: Data are presented as percentage of LPS response.
Data are presented as mean±SEM and the final concentration of each tested compound in the assay is 10 μM. Statistical analysis was performed by 2-way ANOVA followed by Dunnet's comparison to vehicle group, ****p<0.0001.
Cytokines Release from Peripheral Blood Mononuclear Cell Assay
Peripheral blood mononuclear cells (PBMC) are purified from heparinised fresh blood sample on a Lymphoprep gradient. PBMC are plated in 96-well assay plate (2×10^5 cells/well) and stimulated with or without LPS (100 ng/ml) and increasing concentration of compounds of the invention for 3 hours at 37° C. Cell supernatants are recovered after centrifugation and human soluble TNFα, IL-6 or other cytokines, are quantified using ELISA assay (R&D system) according manufacturer's recommendation.
Additional results with compounds of the invention are set out in tabulated form (Table 5).
Usually IC50 stands for the concentration at which inhibition is half-maximal. `COc1ccc(C#N)cc1-c1ccc(C(=O)N2[C@@H](c3ccccc3Cl)CC[C@H]2C(=O)O)cc1` [Compound 345, (2S,5R)-5-(2-chlorophenyl)-1-(5′-cyano-2′-methoxy-[1,1′-biphenyl]-4-carbonyl)pyrrolidine-2-carboxylic acid]: the IC50 came to 0.99 µM.
The figure for `N#Cc1ccccc1-c1ccc(C(=O)N2[C@@H](c3ccccc3Cl)CC[C@H]2C(=O)O)cc1F` [Compound 390, (2S,5R)-5-(2-chlorophenyl)-1-(2′-cyano-2-fluoro-[1,1′-biphenyl]-4-carbonyl)pyrrolidine-2-carboxylic acid] is 5.52 µM.
The same measure for `COc1ncc(-c2ccc(C(=O)N3[C@@H](c4ccccc4Cl)CC[C@H]3C(=O)O)cc2Cl)c(OC)n1` [Compound 325, (2S,5R)-1-(3-chloro-4-(2,4-dimethoxypyrimidin-5-yl)benzoyl)-5-(2-chlorophenyl)pyrrolidine-2-carboxylic acid]: 6 µM.
The figure for `Cc1ccc(C#N)cc1-c1ccc(C(=O)N2[C@@H](c3cccc(F)c3F)CC[C@H]2C(=O)O)cc1` [Compound 421, (2S,5R)-1-(5′-cyano-2′-methyl-[1,1′-biphenyl]-4-carbonyl)-5-(2,3-difluorophenyl)pyrrolidine-2-carboxylic acid] is 2.93 µM; for `COc1ncc(-c2ccc(C(=O)N3[C@@H](c4ccccc4Cl)CC[C@H]3C(=O)O)cc2)c(OC)n1` [Compound 161, (2S,5R)-5-(2-chlorophenyl)-1-(4-(2,4-dimethoxypyrimidin-5-yl)benzoyl)pyrrolidine-2-carboxylic acid] it is 11.8 µM.
In turn, `COc1cc(C#N)c(-c2ccc(C(=O)N3[C@@H](c4ccccc4Cl)CC[C@H]3C(=O)O)cc2)cc1OC` [Compound 361, (2S,5R)-5-(2-chlorophenyl)-1-(2′-cyano-4′,5′-dimethoxy-[1,1′-biphenyl]-4-carbonyl)pyrrolidine-2-carboxylic acid] had an IC50 of 5.19 µM.
